US9593149B2, “Amylin and calcitonin receptor agonist” (Novo Nordisk A/S, priority 2014, dated 2017)
Numbered stars: 1 amine (or outer) side, 2 acyl side, 3 side chain; on linkers, the order of the positions; unused ones are H or OH. Side chains are listed from the residue outwards. Peptide text beside a SMILES is read from it. * marks the point of attachment. C20 diacid = O=C(O)CCCCCCCCCCCCCCCCCCC(=O)*; C18 diacid = O=C(O)CCCCCCCCCCCCCCCCC(=O)*; γGlu = O=C(O)[C@H](CCC(=O)[*:2])N[*:1]

Key:
rat calcitonin receptor = biological target: T1, rat calcitonin receptor (Rattus norvegicus, UniProt P32214); assay: Assay (VIII) binding to the rat calcitonin receptor; settings: membranes; read-out: rCT-R binding IC50
T1 construct: expressed in transfected cells; host or cells: BHK tk'ts 13 (transient, FuGENE 6)
T1 sequence (P32214 25-479 isoform P32214-2 limits assumed): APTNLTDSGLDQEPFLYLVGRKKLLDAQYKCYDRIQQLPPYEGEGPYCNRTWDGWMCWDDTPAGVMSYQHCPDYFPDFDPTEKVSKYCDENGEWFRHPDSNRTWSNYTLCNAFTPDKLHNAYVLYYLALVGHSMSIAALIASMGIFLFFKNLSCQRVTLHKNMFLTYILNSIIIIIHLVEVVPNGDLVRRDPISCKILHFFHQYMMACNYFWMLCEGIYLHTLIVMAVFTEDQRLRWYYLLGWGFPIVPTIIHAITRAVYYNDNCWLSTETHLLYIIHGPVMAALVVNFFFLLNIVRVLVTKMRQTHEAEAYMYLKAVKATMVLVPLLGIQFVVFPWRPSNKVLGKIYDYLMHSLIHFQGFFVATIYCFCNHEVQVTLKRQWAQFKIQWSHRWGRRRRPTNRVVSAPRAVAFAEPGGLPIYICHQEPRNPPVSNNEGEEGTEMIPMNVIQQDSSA
Outline: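 Affinity given as IC50 from a one-site competition fit of bound radioactivity, counted by scintillation after cold HBSS washes and NaOH/SDS lysis. Membranes came from BHK tk'ts 13 cells transiently expressing the rat receptor; other conditions followed the human calcitonin receptor protocol.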

[1] = biological target: T2, human amylin 3(a) receptor (human calcitonin receptor + RAMP-3), BHK570 cells (Homo sapiens, UniProt O60896+P30988); assay: Assay (II)a functional CRE-luciferase assay with albumin, human amylin receptor; assay type: cell-based; settings: Tested with HSA; read-out: hAmylin-R funct. EC50
T2 construct: host or cells: BHK570
Description: (§1) Assay(II)a—Human Calcitonin and Amylin Receptor Assay
(§2) 1. Luciferase Assay Outline
(§3) Activation of calcitonin and amylin (co-expression of calcitonin receptor and receptor activity modifying proteins (RAMP)) receptors lead to increased intracellular concentrations of cAMP. Consequently, transcription is activated by promoters containing multiple copies of the cAMP response element (CRE). It is thus possible to measure amylin activity by the use of a CRE luciferase reporter gene introduced into BHK cells also expressing calcitonin or amylin receptors.
(§4) 2. Construction of Calcitonin (a)—and Amylin 3(a)—Receptor/CRE-Luc Cell Line.
(§5) A BHK570 cell line was stably transfected with the human calcitonin receptor and a CRE-responsive luciferase reporter gene. The cell line was further transfected with RAMP-3, using standard methods. This turns the calcitonin receptor into an amylin 3(a) receptor. Methotrexate, Neomycin, and Hygromycin are selection markers for luciferase, the calcitonin receptor, and RAMP-3, respectively.
(§6) To perform activity assays, BHK calcitonin (a) receptor- or amylin 3(a)-receptor/CRE-luc cells were seeded in white 96 well culture plates at a density of about 20.000 cells/well. […] After incubation overnight at 37° C. and 5% CO2, the growth medium was replaced by 50 μl/well assay medium (DMEM (without phenol red), Glutamax™, 10% FBS, and 10 mM Hepes, pH 7.4). Further, 50 μl/well of standard or sample in assay buffer were added.
(§7) After 3 hours incubation at 37° C. and 5% CO2, the assay medium with standard or sample were removed and replaced by 100 μl/well PBS. Further, 100 μl/well LucLite™ was added. The plates were sealed and incubated at room temperature for 30 minutes. Finally, luminescence was tested on a TopCounter (Packard) in SPC (single photon counting) mode.

[2] = biological target: T3, human calcitonin (a) receptor, BHK570 cells (Homo sapiens, UniProt P30988); assay: Assay (II)a functional CRE-luciferase assay with albumin, human calcitonin receptor; assay type: cell-based; settings: Tested with HSA; read-out: hCTR funct. EC50
T3 construct: host or cells: BHK570
T3 sequence (P30988 25-474): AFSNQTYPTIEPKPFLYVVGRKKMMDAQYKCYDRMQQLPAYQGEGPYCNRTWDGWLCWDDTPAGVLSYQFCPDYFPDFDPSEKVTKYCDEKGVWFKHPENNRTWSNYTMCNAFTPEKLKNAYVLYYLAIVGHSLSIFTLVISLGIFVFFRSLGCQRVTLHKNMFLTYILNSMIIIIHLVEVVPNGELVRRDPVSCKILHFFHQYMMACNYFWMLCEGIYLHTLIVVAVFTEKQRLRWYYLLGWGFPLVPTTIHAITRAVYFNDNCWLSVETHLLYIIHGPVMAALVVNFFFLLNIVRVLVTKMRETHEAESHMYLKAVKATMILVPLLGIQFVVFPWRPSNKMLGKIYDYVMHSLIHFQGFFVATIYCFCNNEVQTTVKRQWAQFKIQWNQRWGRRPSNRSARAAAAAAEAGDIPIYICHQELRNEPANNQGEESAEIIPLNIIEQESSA
Description: as §1, §2, §3, §4, §5, §6, §7

[3] = Assay (IV) determination of solubility; assay type: physicochemical
Experimental: Assay (IV)—Determination of Solubility
The mimylin peptide was dissolved in water at ˜500 nmol/ml and mixed 1:1 with a series of buffers (100 mM glycylglycine pH 3.0, 100 mM glycylglycine pH 4.0, 100 mM glycylglycine pH 5.0, 100 mM bistrispropane pH 6.0, 100 mM bistrispropane pH 6.5, 100 mM bistrispropane pH 7.0, 100 mM bistrispropane pH 7.5, 100 mM bistrispropane pH 8.0).

[4] = biological target: T3, human calcitonin (a) receptor, BHK570 cells; assay: Assay (II)b functional CRE-luciferase assay without albumin, human calcitonin receptor; assay type: cell-based; settings: Tested without HSA; read-out: hCTR funct. EC50
Outline: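 BHK570 cells stably expressing human calcitonin receptor with CRE-luciferase reporter, plus RAMP-3 for the amylin 3(a) line. Cells stimulated 3 hours at 37 °C in albumin-free assay medium (0.1% ovalbumin, 10 mM Hepes pH 7.4); cAMP-driven luciferase read by luminescence.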

[5] = biological target: T2, human amylin 3(a) receptor (human calcitonin receptor + RAMP-3), BHK570 cells; assay: Assay (II)b functional CRE-luciferase assay without albumin, human amylin receptor; assay type: cell-based; settings: Tested without HSA; read-out: hAmylin-R funct. EC50
Outline: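 Agonism measured as CRE-driven luciferase luminescence after 3 h sample exposure at 37 °C, without albumin (0.1% ovalbumin, Hepes pH 7.4 medium). Reporter cells: BHK570 carrying human calcitonin receptor, co-transfected with RAMP-3 to form the amylin 3(a) receptor.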

[6] = biological target: T4, human amylin receptor (human calcitonin receptor + human RAMP3), BHK tk'ts 13 cells (Homo sapiens, UniProt O60896+P30988); assay: Assay (Va) binding to the human amylin receptor (whole cell); settings: read-out: hAmylin-R binding IC50
T4 construct: expressed in transfected cells; host or cells: BHK tk'ts 13
Experimental: The day before the assay the cells were Seeded into Poly-D-Lysin coated 384W Opaque White, BD BioCoat plates (10000 cells/well) and Incubated overnight at 37° C., 5% CO2, 95% humidity.

T2 sequence (O60896 24-148, one chain of several): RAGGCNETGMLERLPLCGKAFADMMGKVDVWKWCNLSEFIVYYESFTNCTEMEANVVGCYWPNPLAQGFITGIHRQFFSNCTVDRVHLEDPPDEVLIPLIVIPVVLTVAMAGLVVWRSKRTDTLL
T4 sequence (O60896 24-148, one chain of several): as above

| IC50 (rat calcitonin receptor) [nM] | EC50 [1] [nM] | EC50 [2] [nM] | solubility at 18 h ([3]; bistrispropane buffer, pH 6.5) [µM] | solubility at 18 h ([3]; bistrispropane buffer, pH 7.5) [µM] | solubility at 18 h ([3]; bistrispropane buffer, pH 6.0) [µM] | solubility at 18 h ([3]; bistrispropane buffer, pH 7.0) [µM] | solubility at 18 h ([3]; bistrispropane buffer, pH 8.0) [µM] | solubility at 18 h ([3]; glycylglycine buffer, pH 3.0) [µM] | solubility at 18 h ([3]; glycylglycine buffer, pH 4.0) [µM] | solubility at 18 h ([3]; glycylglycine buffer, pH 5.0) [µM] | EC50 [4] [nM] | EC50 [5] [nM] | IC50 [6] [nM] | SMILES |
| --- | --- | --- | --- | --- | --- | --- | --- | --- | --- | --- | --- | --- | --- | --- |
| 0.114 | 0.074 | 0.03 | ≥ 200 | ≥ 200 | ≥ 200 | ≥ 200 | ≥ 200 | ≥ 200 | ≥ 200 | ≥ 200 | 0.034 | 0.039 | – | CC(C)C[C@H](NC(=O)[C@H](C)NC(=O)[C@H](C)NC(=O)[C@@H](NC(=O)[C@H](CO)NC(=O)[C@H](CC(C)C)NC(=O)[C@H](CCCCNC(=O)CC[C@H](NC(=O)CCCCCCCCCCCCCCCCCCC(=O)O)C(=O)O)NC(=O)[C@H](CO)NC(=O)[C@H](C)N)[C@@H](C)O)C(=O)NCC(=O)N[C@@H](CCCNC(=N)N)C(=O)N[C@@H](CC(C)C)C(=O)N[C@@H](CO)C(=O)N[C@@H](C)C(=O)N[C@@H](CCC(=O)O)C(=O)N[C@@H](CC(C)C)C(=O)N[C@@H](Cc1c[nH]cn1)C(=O)N[C@@H](CCC(=O)O)C(=O)N[C@@H](CC(C)C)C(=O)N[C@@H](C)C(=O)N[C@H](C(=O)N[C@@H](CC(C)C)C(=O)N1CCC[C@H]1C(=O)N[C@@H](CCCNC(=N)N)C(=O)N[C@H](C(=O)N[C@@H](CCC(=O)O)C(=O)N[C@H](C(=O)NCC(=O)N[C@@H](CO)C(=O)NCC(=O)N[C@@H](CO)C(=O)N1CCC[C@H]1C(N)=O)[C@@H](C)O)[C@@H](C)O)[C@@H](C)O [compound 52, [des1, 4K(C20 diacid-gGlu), 30S, 31G]mimylin] (H-ASK([γGlu-C20 diacid])LSTAALGRLSAELHELATLPRTETGSGSP-NH2; N-terminus assumed) |
| – | 0.024 | 0.015 | ≥ 200 | ≥ 200 | ≥ 200 | ≥ 200 | ≥ 200 | ≥ 200 | ≥ 200 | ≥ 200 | 0.01 | 0.01 | – | CC(C)C[C@H](NC(=O)[C@H](C)NC(=O)[C@H](C)NC(=O)[C@@H](NC(=O)[C@H](CO)NC(=O)[C@H](CC(C)C)NC(=O)[C@H](CCC(=O)O)NC(=O)[C@H](CO)NC(=O)[C@H](C)NC(=O)CC[C@H](NC(=O)CCCCCCCCCCCCCCCCC(=O)O)C(=O)O)[C@@H](C)O)C(=O)NCC(=O)N[C@@H](CCCNC(=N)N)C(=O)N[C@@H](CC(C)C)C(=O)N[C@@H](CO)C(=O)N[C@@H](C)C(=O)N[C@@H](CCC(=O)O)C(=O)N[C@@H](CC(C)C)C(=O)N[C@@H](Cc1c[nH]cn1)C(=O)N[C@@H](CCC(=O)O)C(=O)N[C@@H](CC(C)C)C(=O)N[C@@H](C)C(=O)N[C@H](C(=O)N[C@@H](Cc1ccc(O)cc1)C(=O)N1CCC[C@H]1C(=O)N[C@@H](CCCNC(=N)N)C(=O)N[C@H](C(=O)N[C@@H](CCC(=O)O)C(=O)N[C@H](C(=O)NCC(=O)N[C@@H](CO)C(=O)NCC(=O)N[C@@H](CO)C(=O)N1CCC[C@H]1C(N)=O)[C@@H](C)O)[C@@H](C)O)[C@@H](C)O [compound 58, [N-terminal(C18 diacid-gGlu), des1, 23Y, 30S, 31G]mimylin] ({C18 diacid-γGlu}-ASELSTAALGRLSAELHELATYPRTETGSGSP-NH2) |
| – | 0.019 | 0.009 | ≥ 200 | ≥ 200 | ≥ 200 | ≥ 200 | ≥ 200 | ≥ 200 | ≥ 200 | ≥ 200 | 0.028 | 0.033 | 0.653 | CC(C)C[C@H](NC(=O)[C@H](CCC(=O)O)NC(=O)[C@H](Cc1c[nH]cn1)NC(=O)[C@H](CC(C)C)NC(=O)[C@H](CCC(=O)O)NC(=O)[C@H](C)NC(=O)[C@H](CO)NC(=O)[C@H](CC(C)C)NC(=O)[C@H](CCCNC(=N)N)NC(=O)CNC(=O)[C@H](CC(C)C)NC(=O)[C@@H](NC(=O)[C@H](C)NC(=O)[C@@H](NC(=O)[C@@H](NC(=O)[C@H](CC(C)C)NC(=O)[C@H](CCC(=O)O)NC(=O)[C@H](CO)NC(=O)[C@H](C)NC(=O)CC[C@H](NC(=O)CCCCCCCCCCCCCCCCC(=O)O)C(=O)O)[C@@H](C)O)[C@@H](C)O)C(C)C)C(=O)N[C@@H](C)C(=O)N[C@H](C(=O)N[C@@H](CC(C)C)C(=O)N1CCC[C@H]1C(=O)N[C@@H](CCCNC(=N)N)C(=O)N[C@H](C(=O)N[C@@H](CCC(=O)O)C(=O)N[C@H](C(=O)NCC(=O)N[C@@H](CO)C(=O)NCC(=O)N[C@@H](CO)C(=O)N1CCC[C@H]1C(N)=O)[C@@H](C)O)[C@@H](C)O)[C@@H](C)O [compound 85, [N-terminal(C18 diacid-gGlu), des1, 6T, 9V, 30S, 31G]mimylin] ({C18 diacid-γGlu}-ASELTTAVLGRLSAELHELATLPRTETGSGSP-NH2) |
